Data reported in patent US7589206B2, “Pyrrolopyridine derivatives” (Glaxo Group Limited, priority 2004, dated 2009).
“Also recorded” adds a separate entry of the source. Where a name gives a salt, the structure may show the parent alone. Read-outs that look alike come from different tables or passages of the source.

How the values were obtained:
Format in all cases: cell-based
[1] = biological target: T1, human recombinant CB2 receptors (Homo sapiens, UniProt P34972); assay: CB2 agonist effects in a reporter gene assay (CHO-K1 CB2 CRE-LUC cells, inhibition of forskolin response); settings: 'active except' = excluded from the actives, i.e. not active
T1 construct: expressed in transfected cells; host or cells: CHO-K1 CB2 CRE-LUC cells
Method: CB2 agonist effects were determined using a reporter gene assay. These studies were performed using a CHO-K1 cell line expressing human recombinant CB2 receptors (CHO-K1 CB2 CRE-LUC cells). These cells additionally express a “CRE-LUC” reporter gene construct comprising the gene for luciferase under the control of multiple cAMP response element binding protein promoters. In these cells, increases in intracellular cAMP levels leads to transcription of the luciferase gene and the subsequent production of luciferase. The expression of luciferase is measured by addition to the cells of a proprietary mixture containing luciferin, the substrate for luciferase (Luclite, Perkin Elmer, Cat No 6016919). The resultant reaction leads to the generation of light which is measured in a TopCount scintillation counter. […]
CHO-K1 CB2 CRE-LUC cells were grown in DMEM/F12 plus glutamax I medium (Gibco Cat. No. 31331-028), supplemented with 9% FBS (Gibco, Cat. No. 16000-040) and 0.5 mg·ml^−1 G418 (Gibco, Cat. No. 10131-027) and 0.5 mg·ml^−1 Hygromycin (Invitrogen, Cat. No. 10687-010). […] Finally, luminescence was measured using a Packard TopCount scintillation counter. Data Analysis For each compound maximal inhibition of the forskolin response and the EC50 for this effect was determined. […]

[2] = biological target: T2, human cannabinoid CB2 receptor (Homo sapiens, UniProt P34972); assay: Cannabinoid CB2 receptor agonist activity in yeast cells expressing the receptor (FDGlu fluorescence); settings: for CB2 activity at the cloned human cannabinoid CB2 receptor (in words): b47 says only 'the assay used'
T2 construct: expressed in transfected cells; host or cells: Saccharomyces cerevisiae strain MMY23 (Gpa1/Galphai3 chimeric G-protein alpha subunit)
Method: The cannabinoid CB2 receptor agonist activity of compounds of formula (I) was determined in accordance with the following experimental method.
(§1) Yeast (Saccharomyces cerevisiae) cells expressing the human cannabinoid CB2 receptor were generated by integration of an expression cassette into the ura3 chromosomal locus of yeast strain MMY23. This cassette consisted of DNA sequence encoding the human CB2 receptor flanked by the yeast GPD promoter to the 5′ end of CB2 and a yeast transcriptional terminator sequence to the 3′ end of CB2. MMY23 expresses a yeast/mammalian chimeric G-protein alpha subunit in which the C-terminal 5 amino acids of Gpa1 are replaced with the C-terminal 5 amino acids of human Gαi3 (as described in Brown et al. (2000), Yeast 16:11-22). Cells were grown at 30° C. in liquid Synthetic Complete (SC) yeast media (Guthrie and Fink (1991), Methods in Enzymology, Vol. 194) lacking uracil, tryptophan, adenine and leucine to late logarithmic phase (approximately 6 OD600/m).
Agonists were prepared as 10 mM solutions in DMSO. EC50 values (the concentration required to produce 50% maximal response) were estimated using dilutions of between 3- and 5-fold (BiomekFX, Beckman) into DMSO. Agonist solutions in DMSO (1% final assay volume) were transferred into black microtitre plates from NUNC (96- or 384-well). Cells were suspended at a density of 0.2 OD600/ml in SC media lacking histidine, uracil, tryptophan, adenine and leucine and supplemented with 10 mM 3-aminotriazole, 0.1M sodium phosphate pH 7.0, and 20μM fluorescein di-β-D-glucopyranoside(FDGlu). This mixture (50 ul per well) was added to agonist in the assay plates (Multidrop 384, Labsystems). After incubation at 30° C. for 24 hours, fluorescence resulting from degradation of FDGlu to fluorescein due to exoglucanase, an endogenous yeast enzyme produced during agonist-stimulated cell growth, was determined using a fluorescence microtitre plate reader (Tecan Spectrofluor or LJL Analyst excitation wavelength: 485 nm; emission wavelength: 535 nm). Fluorescence was plotted against compound concentration and iteratively curve fitted using a four parameter fit to generate a concentration effect value. Efficacy (Emax) was calculated from the equation Emax=Max[compound X]−Min[compound X]/Max[HU210]−Min[HU210]×100%
(§2) where Max[compound X] and Min[compound X] are the fitted maximum and minimum respectively from the concentration effect curve for compound X, and Max[HU210] and Min[HU210] are the fitted maximum and minimum respectively from the concentration effect curve for (6aR,10aR)-3-(1,1′-Dimethylheptyl)-6a,7,10,10a-tetrahydro-1-hydroxy-6,6-dimethyl-6H-dibenzo[b,d]pyran-9-methanol (HU210; available from Tocris). Equieffective molar ratio (EMR) values were calculated from the equation EMR=EC50 [compound X]/EC50 [HU210]
(§3) Where EC50 [compound X] is the EC50 of compound X and EC50 [HU210] is the EC50 of HU210.

[3] = biological target: T3, human cannabinoid CB1 receptor (Homo sapiens, UniProt P21554); assay: Cannabinoid CB1 receptor agonist activity in yeast cells expressing the receptor (FDGlu fluorescence); settings: yeast assay, individual values of the exceptions; for EC50: read-out: EC50 at the cloned human cannabinoid CB1 receptor; for Emax: relative to HU210, read-out: efficacy (Emax) at the cloned human cannabinoid CB1 receptor
T3 construct: expressed in transfected cells; host or cells: Saccharomyces cerevisiae strain MMY23 (Gpa1/Galphai3 chimeric G-protein alpha subunit)
Method: The cannabinoid CB1 receptor agonist activity of compounds of formula (I) was determined in accordance with the following experimental method.
as §1, with “CB1” for “CB2”, “CB1.” for “CB2.”, “OD600/ml).” for “OD600/m).”
Agonists were prepared as 10 mM stocks in DMSO. EC50 values (the concentration required to produce 50% maximal response) were estimated using dilutions of between 3- and 5-fold (BiomekFX, Beckman) into DMSO. Agonist solutions in DMSO (1% final assay volume) were transferred into black, clear bottom, microtitre plates from NUNC (96- or 384-well). Cells were suspended at a density of 0.2 OD600/ml in SC media lacking histidine, uracil, tryptophan, adenine and leucine and supplemented with 10 mM 3-aminotriazole, 0.1M sodium phosphate pH 7.0, and 20 μM fluorescein di-β-D-glucopyranoside (FDGlu). This mixture (50 ul per well for 384-well plates, 200 ul per well for 96-well plates) was added to agonist in the assay plates (Multidrop 384, Labsystems). After incubation at 30° C. for 24 hours, fluorescence resulting from degradation of FDGlu to fluorescein due to exoglucanase, an endogenous yeast enzyme produced during agonist-stimulated cell growth, was determined using a Spectrofluor microtitre plate reader (Tecan; excitation wavelength: 485 nm; emission wavelength: 535 nm). Fluorescence was plotted against compound concentration and iteratively curve fitted using a four parameter fit to generate a concentration effect value. Efficacy (Emax) was calculated from the equation Emax=Max[compound X]−Min[compound X]/Max[HU210]−Min[HU210]×100%
as §2, §3

T3 sequence (P21554 whole entry): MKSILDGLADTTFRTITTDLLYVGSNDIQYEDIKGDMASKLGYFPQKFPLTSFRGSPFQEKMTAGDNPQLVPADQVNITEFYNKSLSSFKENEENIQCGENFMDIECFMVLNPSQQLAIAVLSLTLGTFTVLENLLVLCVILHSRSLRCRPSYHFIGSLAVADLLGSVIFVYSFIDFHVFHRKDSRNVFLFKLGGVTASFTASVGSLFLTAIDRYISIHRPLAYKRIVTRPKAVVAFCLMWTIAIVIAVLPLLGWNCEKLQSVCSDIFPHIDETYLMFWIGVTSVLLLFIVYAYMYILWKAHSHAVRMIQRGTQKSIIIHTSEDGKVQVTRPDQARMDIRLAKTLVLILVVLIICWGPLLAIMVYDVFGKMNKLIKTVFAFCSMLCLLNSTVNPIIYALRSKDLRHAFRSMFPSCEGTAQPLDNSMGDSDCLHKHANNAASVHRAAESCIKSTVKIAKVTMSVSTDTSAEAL
T2 sequence (P34972 whole entry): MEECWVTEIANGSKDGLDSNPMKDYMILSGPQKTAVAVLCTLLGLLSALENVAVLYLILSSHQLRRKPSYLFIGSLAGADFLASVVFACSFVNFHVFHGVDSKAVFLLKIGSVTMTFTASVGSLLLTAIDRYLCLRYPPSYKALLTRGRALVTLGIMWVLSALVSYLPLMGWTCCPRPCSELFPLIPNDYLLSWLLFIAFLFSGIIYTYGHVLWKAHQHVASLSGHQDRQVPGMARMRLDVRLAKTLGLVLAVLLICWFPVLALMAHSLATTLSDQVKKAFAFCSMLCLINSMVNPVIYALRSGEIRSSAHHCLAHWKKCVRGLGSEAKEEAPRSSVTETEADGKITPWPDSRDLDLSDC
T1 sequence (P34972 whole entry): as above

Row | SMILES | EC50 [2] [nM] | EC50 [3] [nM] | Emax [3] [%] | other results
1 | Cc1c[nH]c2c(N3CCOCC3)ncc(C(=O)NC3CCOCC3)c12.Cl [Example 22, 3-methyl-7-morpholin-4-yl-1H-pyrrolo[2,3-c]pyridine-4-carboxylic acid (tetrahydro-pyran-4-yl)-amide] |  |  |  | CB2 agonist activity in reporter gene assay (in words) [1]: active except; CB2 activity at the cloned human cannabinoid CB2 receptor (in words) ([2]; yeast assay): inactive; also recorded: did not appear to have CB2 activity
2 | Cc1c[nH]c2c(N3CCOCC3)ncc(C(=O)NCC3CCOCC3)c12.Cl [Example 23, 3-methyl-7-morpholin-4-yl-1H-pyrrolo[2,3-c]pyridine-4-carboxylic acid (tetrahydro-pyran-4-ylmethyl)-amide] |  |  |  | CB2 agonist activity in reporter gene assay (in words) [1]: active except; CB2 activity at the cloned human cannabinoid CB2 receptor (in words) ([2]; yeast assay): inactive; also recorded: did not appear to have CB2 activity
3 | CN(c1cccc(Cl)c1)c1ncc(C(=O)NCC2CCC2)c2c1ccn2C [Example 67, 4-[(3-Chloro-phenyl)-methyl-amino]-1-methyl-1H-pyrrolo[3,2-c]pyridine-7-carboxylic acid cyclobutylmethyl amide hydrochloride] | 300 to 1000 |  |  | 
4 | COc1ccccc1Nc1ncc(C(=O)N2CCOCC2)c2c(C)c[nH]c12 [Example 72, 1-[7-(2-Methoxy-phenylamino)-3-methyl-1H-pyrrolo[2,3-c]pyridin-4-yl]-1-morpholin-4-yl-methanone hydrochloride salt] | 300 to 1000 |  |  | 
5 | Cn1ccc2c(Nc3cc(Cl)cc(Cl)c3)ncc(C(=O)N3CCOCC3)c21 [Example 124, N-(3,5-Dichlorophenyl)-1-methyl-7-(4-morpholinylcarbonyl)-1H-pyrrolo[3,2-c]pyridin-4-amine hydrochloride] |  | 508 | 75 | 
6 | Cn1ccc2c(Nc3ccc(C#N)c(Cl)c3)ncc(C(=O)N3CCOCC3)c21 [Example 130, 2-Chloro-4-{[1-methyl-7-(4-morpholinylcarbonyl)-1H-pyrrolo[3,2-c]pyridin-4-yl]amino}benzonitrile hydrochloride] |  | 897 | 30 | 
7 | Cn1ccc2c(Nc3ccc(C#N)c(Br)c3)ncc(C(=O)N3CCOCC3)c21 [Example 162, 2-Bromo-4-{[1-methyl-7-(4-morpholinylcarbonyl)-1H-pyrrolo[3,2-c]pyridin-4-yl]amino}benzonitrile hydrochloride] |  | 801 | 33 | 
8 | Cc1cc(F)ccc1Nc1ncc(C(=O)N2CCOCC2)c2c1ccn2C [Example 183, N-(4-Fluoro-2-methylphenyl)-1-methyl-7-(4-morpholinylcarbonyl)-1H-pyrrolo[3,2-c]pyridin-4-amine hydrochloride] |  |  |  | EC50 ([2]; yeast assay, read-out: EC50 at the cloned human cannabinoid CB2 receptor): 300 to 1000 nM
9 | Cc1ccc(Nc2ncc(C(=O)N3CCOCC3)c3c2ccn3C)c(C)c1 [Example 184, N-(2,4-Dimethylphenyl)-1-methyl-7-(4-morpholinylcarbonyl)-1H-pyrrolo[3,2-c]pyridin-4-amine hydrochloride] | 300 to 1000 |  |  | 
10 | Cn1ccc2c(Nc3cccc(Cl)c3)ncc(C(=O)N3CCSCC3)c21 [Example 237, N-(3-Chlorophenyl)-1-methyl-7-(4-thiomorpholinylcarbonyl)-1H-pyrrolo[3,2-c]pyridin-4-amine] |  | 738 | 92 | 
